Source: patent US9492398B2, “Nanocapsulation of essential oils for preventing or curing infectious diseases alone or with an antibiotic” (Eydo Pharma, priority 2011, dated 2016)
≈ marks a conversion by molar mass, not a printed value. Read-outs that look alike come from different tables or passages of the source. Blank lines part the entries; values can stand above or below the compound they belong to.

Legend:
[1] = from the literature; cited from earlier work
[2] = test system: E. coli ATCC25922; assay: Minimal inhibitory concentration on Muller-Hinton agar; assay type: cell-based; conditions: for Minimal Inhibitory Concentration: E. coli ATCC25922; for MIC: Escherichia coli
Method: (§1) The essential oils were also tested individually for their minimal inhibitory concentration.
(§2) The solution was first prepared at 40% in DMSO before being placed on the Muller-Hinton agar in the following manner in Table VIII:
(§3) Twenty-two different microorganisms were tested and their minimal inhibitory concentration was tested.

[3] = test system: E. aerogenes 0705A0867; assay: as above; assay type: cell-based; conditions: for Minimal Inhibitory Concentration: E. aerogenes 0705A0867; for MIC: Klebsiella aerogenes
Method: as §1, §2, §3

[4] = test system: S. aureus ATC25923; assay: as above; assay type: cell-based; conditions: for Minimal Inhibitory Concentration: S. aureus ATC25923; for MIC: Staphylococcus aureus
Method: as §1, §2, §3

[5] = test system: A. baumanni CIP5377; assay: as above; assay type: cell-based; conditions: for MIC: read-out: Minimal Inhibitory Concentration
Method: as §1, §2, §3

[6] = test system: A. baumanni SAN008; assay: as above; assay type: cell-based
Method: as §1, §2, §3

[7] = test system: E. cloacae 0705A1743; assay: as above; assay type: cell-based; conditions: for Minimal Inhibitory Concentration: E. cloacae 0705A1743; for MIC: Enterobacter cloacae
Method: as §1, §2, §3

[8] = test system: P. aeroginosa ATCC27853; assay: as above; assay type: cell-based; conditions: read-out: Minimal Inhibitory Concentration
Method: as §1, §2, §3

[9] = test system: S. aureus 0706C0025; assay: as above; assay type: cell-based; conditions: for Minimal Inhibitory Concentration: S. aureus 0706C0025; for MIC: Staphylococcus aureus
Method: as §1, §2, §3

[10] = test system: S. aureus 0702E0196; assay: as above; assay type: cell-based; conditions: for Minimal Inhibitory Concentration: S. aureus 0702E0196; for MIC: Staphylococcus aureus
Method: as §1, §2, §3

[11] = test system: K. oxyloca 0705C0187; assay: as above; assay type: cell-based
Method: as §1, §2, §3

[12] = test system: A. baumanni AYE; assay: as above; assay type: cell-based
Method: as §1, §2, §3

[13] = test system: S. aureus 0701A0095; assay: as above; assay type: cell-based; conditions: for MIC: Staphylococcus aureus; for Minimal Inhibitory Concentration: S. aureus 0701A0095
Method: as §1, §2, §3

[14] = test system: S. aureus 0703H0036; assay: as above; assay type: cell-based; conditions: for Minimal Inhibitory Concentration: S. aureus 0703H0036; for MIC: Staphylococcus aureus
Method: as §1, §2, §3

[15] = test system: A. baumanni CIP107292; assay: as above; assay type: cell-based
Method: as §1, §2, §3

[16] = test system: P. aeroginosa 0704C0134; assay: as above; assay type: cell-based
Method: as §1, §2, §3

[17] = test system: Salmonell enteritidis 4; assay: as above; assay type: cell-based
Method: as §1, §2, §3

[18] = test system: E. coli 0705A0434; assay: as above; assay type: cell-based; conditions: for Minimal Inhibitory Concentration: E. coli 0705A0434; for MIC: Escherichia coli
Method: as §1, §2, §3

[19] = test system: A. baumanni CIP7034; assay: as above; assay type: cell-based
Method: as §1, §2, §3

[20] = test system: A. baumanni 12; assay: as above; assay type: cell-based; conditions: for MIC: read-out: Minimal Inhibitory Concentration
Method: as §1, §2, §3

[21] = test system: A. baumanni RCH; assay: as above; assay type: cell-based; conditions: for MIC: read-out: Minimal Inhibitory Concentration
Method: as §1, §2, §3

[22] = test system: P. aeroginosa 0703C0259; assay: as above; assay type: cell-based
Method: as §1, §2, §3

[23] = 0705A0867, E. aerogenes 0705A0867, read-out: Minimal Inhibitory Concentration
[24] = ATC25923, S. aureus ATC25923, read-out: Minimal Inhibitory Concentration
[25] = A. baumanni SAN008, read-out: Minimal Inhibitory Concentration
[26] = 0706C0025, S. aureus 0706C0025, read-out: Minimal Inhibitory Concentration
[27] = 0702E0196, S. aureus 0702E0196, read-out: Minimal Inhibitory Concentration
[28] = K. oxyloca 0705C0187, read-out: Minimal Inhibitory Concentration
[29] = A. baumanni AYE, read-out: Minimal Inhibitory Concentration
[30] = 0701A0095, S. aureus 0701A0095, read-out: Minimal Inhibitory Concentration
[31] = 0703H0036, S. aureus 0703H0036, read-out: Minimal Inhibitory Concentration
[32] = P. aeroginosa 0704C0134, read-out: Minimal Inhibitory Concentration
[33] = Salmonell enteritidis 4, read-out: Minimal Inhibitory Concentration
[34] = 0705A0434, E. coli 0705A0434, read-out: Minimal Inhibitory Concentration
[35] = A. baumanni CIP7034, read-out: Minimal Inhibitory Concentration

Compound: [H]/N=C(/N)N[C@H]1[C@H](O)[C@@H](O)[C@H](O[C@@H]2O[C@@H](C)[C@](O)(C=O)[C@H]2O[C@@H]2O[C@@H](CO)[C@H](O)[C@@H](O)[C@@H]2NC)[C@@H](N/C(N)=N\[H])[C@@H]1O [Streptomycin]
LD50 in mice by intraperitoneal injection [1]: 525 mg/kg

Compound: Cc1ccc(C(C)C)cc1O [carvacrol]
Minimal Inhibitory Concentration [2]: 2 mg/mL | MIC ([2]; ATCC25922, read-out: Minimal Inhibitory Concentration, E. coli ATCC25922): 1500 µg/mL (≈ 9.99 mM) | Minimal Inhibitory Concentration [3]: 2 mg/mL | MIC ([3]; 0705A0867, read-out: Minimal Inhibitory Concentration, E. aerogenes 0705A0867): 1500 µg/mL (≈ 9.99 mM) | Minimal Inhibitory Concentration [4]: 0.75 mg/mL | MIC ([4]; ATC25923, read-out: Minimal Inhibitory Concentration, S. aureus ATC25923): 1500 µg/mL (≈ 9.99 mM) | MIC [5]: 1000 µg/mL (≈ 6.66 mM) | Minimal Inhibitory Concentration ([6]; A. baumanni SAN008): 1.5 mg/mL | MIC ([6]; read-out: Minimal Inhibitory Concentration, A. baumanni SAN008): 1000 µg/mL (≈ 6.66 mM) | Minimal Inhibitory Concentration [7]: 2 mg/mL | MIC ([7]; 0705A1743, read-out: Minimal Inhibitory Concentration, E. cloacae 0705A1743): 1500 µg/mL (≈ 9.99 mM) | MIC [8]: 7500 µg/mL (≈ 49.9 mM) | Minimal Inhibitory Concentration [9]: 2 mg/mL | MIC ([9]; 0706C0025, read-out: Minimal Inhibitory Concentration, S. aureus 0706C0025): 1500 µg/mL (≈ 9.99 mM) | Minimal Inhibitory Concentration [10]: 1 mg/mL | MIC ([10]; 0702E0196, read-out: Minimal Inhibitory Concentration, S. aureus 0702E0196): 1500 µg/mL (≈ 9.99 mM) | Minimal Inhibitory Concentration ([11]; K. oxyloca 0705C0187): 2 mg/mL | MIC ([11]; read-out: Minimal Inhibitory Concentration, K. oxyloca 0705C0187): 1500 µg/mL (≈ 9.99 mM) | Minimal Inhibitory Concentration ([12]; A. baumanni AYE): 1.5 mg/mL | MIC ([12]; read-out: Minimal Inhibitory Concentration, A. baumanni AYE): 1000 µg/mL (≈ 6.66 mM) | MIC ([13]; 0701A0095, read-out: Minimal Inhibitory Concentration): 1500 µg/mL (≈ 9.99 mM) | Minimal Inhibitory Concentration [14]: 2 mg/mL | MIC ([14]; 0703H0036, read-out: Minimal Inhibitory Concentration, S. aureus 0703H0036): 1500 µg/mL (≈ 9.99 mM) | Minimal Inhibitory Concentration ([15]; A. baumanni CIP107292): 1.5 mg/mL | MIC ([15]; read-out: Minimal Inhibitory Concentration, A. baumanni CIP107292): 1000 µg/mL (≈ 6.66 mM) | Minimal Inhibitory Concentration ([16]; P. aeroginosa 0704C0134): 5 mg/mL | MIC ([16]; read-out: Minimal Inhibitory Concentration, P. aeroginosa 0704C0134): 2500 µg/mL (≈ 16.6 mM) | Minimal Inhibitory Concentration ([17]; Salmonell enteritidis 4): 2.5 mg/mL | MIC ([17]; read-out: Minimal Inhibitory Concentration, Salmonell enteritidis 4): 2000 µg/mL (≈ 13.3 mM) | Minimal Inhibitory Concentration [18]: 2 mg/mL | MIC ([18]; 0705A0434, read-out: Minimal Inhibitory Concentration, E. coli 0705A0434): 1500 µg/mL (≈ 9.99 mM) | Minimal Inhibitory Concentration ([19]; A. baumanni CIP7034): 1.5 mg/mL | MIC ([19]; read-out: Minimal Inhibitory Concentration, A. baumanni CIP7034): 1000 µg/mL (≈ 6.66 mM) | MIC [20]: 1500 µg/mL (≈ 9.99 mM) | MIC [21]: 1000 µg/mL (≈ 6.66 mM)

MIC ([2]; ATCC25922, E. coli ATCC25922, read-out: Minimal Inhibitory Concentration): 750 µg/mL (≈ 4.57 mM) | MIC [3, 23]: 1000 µg/mL (≈ 6.09 mM) | MIC [22]: 2500 µg/mL (≈ 15.2 mM) | MIC [4, 24]: 750 µg/mL (≈ 4.57 mM) | MIC ([5]; A. baumanni CIP5377): 500 µg/mL (≈ 3.04 mM) | MIC [6, 25]: 750 µg/mL (≈ 4.57 mM) | MIC ([7]; 0705A1743, E. cloacae 0705A1743, read-out: Minimal Inhibitory Concentration): 1000 µg/mL (≈ 6.09 mM) | MIC ([8]; P. aeroginosa ATCC27853): 7500 µg/mL (≈ 45.7 mM) | MIC [9, 26]: 1000 µg/mL (≈ 6.09 mM) | MIC [10, 27]: 1000 µg/mL (≈ 6.09 mM) | MIC [11, 28]: 1000 µg/mL (≈ 6.09 mM) | MIC [12, 29]: 750 µg/mL (≈ 4.57 mM) | MIC [13, 30]: 750 µg/mL (≈ 4.57 mM) | MIC [14, 31]: 1000 µg/mL (≈ 6.09 mM) | MIC ([15]; A. baumanni CIP107292, read-out: Minimal Inhibitory Concentration): 1000 µg/mL (≈ 6.09 mM) | MIC [16, 32]: 1500 µg/mL (≈ 9.13 mM) | MIC [17, 33]: 1000 µg/mL (≈ 6.09 mM) | MIC [18, 34]: 1000 µg/mL (≈ 6.09 mM) | MIC [19, 35]: 1000 µg/mL (≈ 6.09 mM) | MIC ([20]; A. baumanni 12): 1000 µg/mL (≈ 6.09 mM) | MIC ([21]; A. baumanni RCH): 750 µg/mL (≈ 4.57 mM)
Compound: C=CCc1ccc(O)c(OC)c1 [eugenol]
Minimal Inhibitory Concentration [2]: 1.5 mg/mL | Minimal Inhibitory Concentration [3]: 1.5 mg/mL | Minimal Inhibitory Concentration [22]: 5 mg/mL | Minimal Inhibitory Concentration [4]: 1.5 mg/mL | Minimal Inhibitory Concentration ([5]; A. baumanni CIP5377): 1 mg/mL | Minimal Inhibitory Concentration ([6]; A. baumanni SAN008): 1.5 mg/mL | Minimal Inhibitory Concentration [7]: 1.5 mg/mL | Minimal Inhibitory Concentration [10]: 1.5 mg/mL | Minimal Inhibitory Concentration ([11]; K. oxyloca 0705C0187): 1.5 mg/mL | Minimal Inhibitory Concentration ([12]; A. baumanni AYE): 1 mg/mL | Minimal Inhibitory Concentration [13]: 1.5 mg/mL | Minimal Inhibitory Concentration [14]: 1.5 mg/mL | Minimal Inhibitory Concentration ([16]; P. aeroginosa 0704C0134): 2 mg/mL | Minimal Inhibitory Concentration ([17]; Salmonell enteritidis 4): 1.5 mg/mL | Minimal Inhibitory Concentration [18]: 1.5 mg/mL | Minimal Inhibitory Concentration ([19]; A. baumanni CIP7034): 1.5 mg/mL | Minimal Inhibitory Concentration ([20]; A. baumanni 12): 1.5 mg/mL | Minimal Inhibitory Concentration ([21]; A. baumanni RCH): 1 mg/mL

Compound: O=C/C=C/c1ccccc1 [trans cinnamaldehyde]
Minimal Inhibitory Concentration [3]: 2 mg/mL | MIC [3, 23]: 1000 µg/mL (≈ 7.57 mM) | MIC [22]: 1500 µg/mL (≈ 11.3 mM) | Minimal Inhibitory Concentration [22]: 2 mg/mL | Minimal Inhibitory Concentration [4]: 1.5 mg/mL | MIC [4, 24]: 750 µg/mL (≈ 5.67 mM) | Minimal Inhibitory Concentration ([6]; A. baumanni SAN008): 2 mg/mL | MIC [6, 25]: 1000 µg/mL (≈ 7.57 mM) | Minimal Inhibitory Concentration [9]: 0.5 mg/mL | MIC [9, 26]: 750 µg/mL (≈ 5.67 mM) | Minimal Inhibitory Concentration [10]: 1.5 mg/mL | MIC [10, 27]: 1000 µg/mL (≈ 7.57 mM) | Minimal Inhibitory Concentration ([11]; K. oxyloca 0705C0187): 2 mg/mL | MIC [11, 28]: 1000 µg/mL (≈ 7.57 mM) | Minimal Inhibitory Concentration ([12]; A. baumanni AYE): 2 mg/mL | MIC [12, 29]: 1000 µg/mL (≈ 7.57 mM) | Minimal Inhibitory Concentration [13]: 1.5 mg/mL | MIC [13, 30]: 750 µg/mL (≈ 5.67 mM) | Minimal Inhibitory Concentration [14]: 1.5 mg/mL | MIC [14, 31]: 750 µg/mL (≈ 5.67 mM) | Minimal Inhibitory Concentration ([16]; P. aeroginosa 0704C0134): 2 mg/mL | MIC [16, 32]: 1000 µg/mL (≈ 7.57 mM) | Minimal Inhibitory Concentration ([17]; Salmonell enteritidis 4): 2 mg/mL | MIC [17, 33]: 1000 µg/mL (≈ 7.57 mM) | Minimal Inhibitory Concentration [18]: 2 mg/mL | MIC [18, 34]: 1000 µg/mL (≈ 7.57 mM) | MIC [19, 35]: 1000 µg/mL (≈ 7.57 mM) | MIC ([20]; A. baumanni 12): 1000 µg/mL (≈ 7.57 mM)

Compound: Gentamicin
LD50 in mice by intraperitoneal injection [1]: 245 mg/kg
